Converted amounts (≈) assume the structure as drawn.
Legend:
Type in all cases: functional
[1] = tested on: Staphylococcus aureus; assay: In vitro antibacterial activity of compound against Staphylococcus aureus 663 PEN-S
[2] = tested on: Staphylococcus aureus; assay: In vitro antibacterial activity of compound against Staphylococcus aureus 11311 MET-R
[3] = tested on: Escherichia coli; assay: In vitro antibacterial activity of compound against Escherichia coli 1852E PM was determined
[4] = tested on: Klebsiella pneumoniae; assay: In vitro antibacterial activity of compound against Klebsiella pneumoniae 3226 was determined
[5] = tested on: Pseudomonas aeruginosa; assay: In vitro antibacterial activity of compound against Pseudomonas aeruginosa 2032E WT was determined
[6] = tested on: Enterobacter cloacae; assay: In vitro antibacterial activity of compound against Enterobacter cloacae 3647 was determined
[7] = tested on: Haemophilus influenzae; assay: In vitro antibacterial activity of compound against Haemophilus influenzae ATCC 49247 was determined
[8] = tested on: Bacteroides fragilis; assay: In vitro antibacterial activity of compound against Bacteroides fragilis 2017E was determined
[9] = tested on: Proteus mirabilis; assay: In vitro antibacterial activity of compound against Proteus mirabilis 3558 was determined
[10] = tested on: Pseudomonas aeruginosa; assay: In vitro antibacterial activity of compound against Pseudomonas aeruginosa 1911E was determined
[11] = tested on: Clostridium perfringens; assay: In vitro antibacterial activity of compound against Clostridium perfringens 615E was determined
[12] = tested on: Escherichia coli; assay: In vitro antibacterial activity of compound against Escherichia coli 1850E WT was determined
[13] = tested on: Escherichia coli; assay: In vitro antibacterial activity of compound against Escherichia coli 851E was determined
[14] = tested on: Staphylococcus aureus; assay: In vitro antibacterial activity of compound against Staphylococcus aureus 853E PEN-R
[15] = tested on: Escherichia coli; assay: In vitro antibacterial activity of compound against Escherichia coli 1919E PM/TEM-1 was determined
[16] = tested on: Streptococcus pneumoniae; assay: In vitro antibacterial activity of compound against Streptococcus pneumoniae 3512 was determined
[17] = tested on: Enterococcus faecalis; assay: In vitro antibacterial activity of compound against Enterococcus faecalis 850
[18] = tested on: Pseudomonas aeruginosa; assay: In vitro antibacterial activity of compound against Pseudomonas aeruginosa 2033E PER

Row | Compound | MIC [1] [µg/mL] | MIC [2] [µg/mL] | MIC [3] [µg/mL] | MIC [4] [µg/mL] | MIC [5] [µg/mL] | MIC [6] [µg/mL] | MIC [7] [µg/mL] | MIC [8] [µg/mL] | MIC [9] [µg/mL] | MIC [10] [µg/mL] | MIC [11] [µg/mL] | MIC [12] [µg/mL] | MIC [13] [µg/mL] | MIC [14] [µg/mL] | MIC [15] [µg/mL] | MIC [16] [µg/mL] | MIC [17] [µg/mL] | MIC [18] [µg/mL]
1 | CO[C@H]1CC[C@H]2C(=C(C(=O)O)N3C(=O)[C@H]([C@@H](C)O)[C@@H]23)C1 | 0.5 (≈ 1.78 µM) | > 32 | 1 (≈ 3.55 µM) | 4 (≈ 14.2 µM) | > 32 | 32 (≈ 114 µM) | 4 (≈ 14.2 µM) | 16 (≈ 56.9 µM) | 8 (≈ 28.4 µM) | > 32 | 2 (≈ 7.11 µM) | 8 (≈ 28.4 µM) | 8 (≈ 28.4 µM) | 1 (≈ 3.55 µM) | 2 (≈ 7.11 µM) | 0.12 (≈ 0.427 µM) | 8 (≈ 28.4 µM) | 16 (≈ 56.9 µM)
2 | COCC[C@H]1CC[C@H]2C(=C(C(=O)O)N3C(=O)[C@H]([C@@H](C)O)[C@@H]23)C1 | 0.5 (≈ 1.62 µM) | > 32 | 1 (≈ 3.23 µM) | 4 (≈ 12.9 µM) | > 32 | 32 (≈ 103 µM) | 4 (≈ 12.9 µM) | 16 (≈ 51.7 µM) | 8 (≈ 25.9 µM) | > 32 | 2 (≈ 6.46 µM) | 8 (≈ 25.9 µM) | 8 (≈ 25.9 µM) | 1 (≈ 3.23 µM) | 2 (≈ 6.46 µM) | 0.12 (≈ 0.388 µM) | 8 (≈ 25.9 µM) | 16 (≈ 51.7 µM)
3 | C[C@@H](O)[C@H]1C(=O)N2C(C(=O)O)=C(SCCNC=N)C[C@H]12 [IMIPENEM ANHYDROUS] | 0.06 (≈ 0.2 µM) | > 32 | 0.5 (≈ 1.67 µM) | 0.5 (≈ 1.67 µM) | 4 (≈ 13.4 µM) | 2 (≈ 6.68 µM) | 1 (≈ 3.34 µM) | 0.2 (≈ 0.668 µM) | 8 (≈ 26.7 µM) | 4 (≈ 13.4 µM) | 0.2 (≈ 0.668 µM) | 0.5 (≈ 1.67 µM) | 0.5 (≈ 1.67 µM) | 0.06 (≈ 0.2 µM) | 0.5 (≈ 1.67 µM) | < 0.01 | 4 (≈ 13.4 µM) | 0.2 (≈ 0.668 µM)
4 | C[C@@H](O)[C@H]1C(=O)N2C(C(=O)O)=C3C[C@@H](CCO)CC[C@@H]3[C@H]12 | 0.25 (≈ 0.846 µM) | > 32 | 2 (≈ 6.77 µM) | 2 (≈ 6.77 µM) | > 32 | 4 (≈ 13.5 µM) | 1 (≈ 3.39 µM) | 16 (≈ 54.2 µM) | 8 (≈ 27.1 µM) | > 32 | 4 (≈ 13.5 µM) | 2 (≈ 6.77 µM) | 1 (≈ 3.39 µM) | 0.5 (≈ 1.69 µM) | 2 (≈ 6.77 µM) | 0.25 (≈ 0.846 µM) | 4 (≈ 13.5 µM) | 4 (≈ 13.5 µM)
5 | CO[C@H]1CCC[C@H]2C1=C(C(=O)[O-])N1C(=O)[C@H]([C@@H](C)O)[C@@H]21.[Na+] [SANFETRINEM SODIUM] | – | – | – | – | – | – | – | 0.06 | – | > 32 | 0.03 | 0.5 | – | 0.2 | 0.5 | 0.01 | 1 | –

— ChEMBL document CHEMBL1130484, “Tricyclic -lactams: Total synthesis and antibacterial activity of 5-methoxyethyl and 5-hydroxyethyl trinems” (1997)
